According to article PMC4876928 (Clinical cancer research : an official journal of the …, 2016):

Tests used:
[1] = system: xenograft cancer models with PI3K-mutant, PTEN-null, and KRAS-mutant cell lines; details: multiple xenograft models; cited from earlier work
advanced solid tumors = assay: Tumor response by RECIST v1.0 / modified RECIST; assay type: in vivo, human
[2] = Phase I safety and tolerability: DLTs, MTD, adverse events; assay type: in vivo, human

Compound: Cc1c(CN2CCN(C(=O)[C@H](C)O)CC2)sc2c(N3CCOCC3)nc(-c3cnc(N)nc3)nc12 [apitolisib]
- Tumor growth inhibition [1]: Tumor growth inhibition has been demonstrated
- Median time on study (advanced solid tumors; 40 mg 28/28): 2.9 months
- stable disease with tumor regression (advanced solid tumors; 40 mg 28/28): 20 patients
- time on study, range (advanced solid tumors; 40 mg 28/28): 1-21.2 months
- PRs (advanced solid tumors; 40 mg 28/28, 49 RECIST evaluable patients): Five
- PD as best radiological response (advanced solid tumors; 14 evaluable patients with PIK3CA mutations, 40 mg 28/28): 3
- PRs as best radiological response (advanced solid tumors; 14 evaluable patients with PIK3CA mutations, 40 mg 28/28, 1 confirmed): 3
- PR rate in MPM patients (advanced solid tumors; MPM): 12%
- Median time on study (advanced solid tumors; MPM, 30 mg 28/28): 4 months
- time on study, range (advanced solid tumors; MPM, 30 mg 28/28): 0.5-38.9 months
- patients on study for more than 6 months (advanced solid tumors; MPM, 30 mg 28/28 (8 patients)): 30%
- partial response rate (advanced solid tumors; RP2D 40 mg QD): 10.2%
- dose from which anti-tumor activity was apparent (advanced solid tumors; in vivo): 8 mg
- response rate with enrichment for PIK3CA mutations (advanced solid tumors; in vivo): 18.8%
- single agent response rate (advanced solid tumors; in vivo): 10-19%
- time on apitolisib (advanced solid tumors; one patient, metastatic clear cell ovarian cancer, 40 mg 28/28): 282 days
- maximal tumor shrinkage, change from baseline (advanced solid tumors; one patient, metastatic clear cell ovarian cancer, E545K PIK3CA, 40 mg 28/28): −48.3%
- patients continuing on study for over 12 months (advanced solid tumors; stage 1 (3 patients)): 5%
- partial responses (PR) (advanced solid tumors; stage 1, among 56 patients): 4
- confirmed responses (advanced solid tumors; stage 1, 32 mg QD 21/28 and 50 mg QD 21/28): 2
- Decreased appetite, treatment related AE, n (%) ([2]; 30mg 28/28d (n=27), G3): 0
- Diarrhea, treatment related AE, n (%) ([2]; 30mg 28/28d (n=27), G3): 2 (7%)
- Dry skin, treatment related AE, n (%) ([2]; 30mg 28/28d (n=27), G3): 0
- Fatigue, treatment related AE, n (%) ([2]; 30mg 28/28d (n=27), G3): 4 (15%)
- Hyperglycemia, treatment related AE, n (%) ([2]; 30mg 28/28d (n=27), G3): 1 (4%)
- Liver dysfunction (abnormal LFTs), treatment related AE, n (%) ([2]; 30mg 28/28d (n=27), G3): 1 (4%)
- Mucosal inflammation, treatment related AE, n (%) ([2]; 30mg 28/28d (n=27), G3): 0
- Nausea, treatment related AE, n (%) ([2]; 30mg 28/28d (n=27), G3): 1 (4%)
- Patients with any AE related to apitolisib, n (%) ([2]; 30mg 28/28d (n=27), G3): 14 (52%)
- Pneumonitis, treatment related AE, n (%) ([2]; 30mg 28/28d (n=27), G3): 1 (4%)
- Pruritus, treatment related AE, n (%) ([2]; 30mg 28/28d (n=27), G3): 0
- Rash (maculopapular, pruritic, macular, erythematous, generalized), treatment related AE, n (%) ([2]; 30mg 28/28d (n=27), G3): 5 (19%)
- Vomiting, treatment related AE, n (%) ([2]; 30mg 28/28d (n=27), G3): 0
- Decreased appetite, treatment related AE, n (%) ([2]; 30mg 28/28d (n=27), ≤G2): 13 (48%)
- Diarrhea, treatment related AE, n (%) ([2]; 30mg 28/28d (n=27), ≤G2): 16 (59%)
- Dry skin, treatment related AE, n (%) ([2]; 30mg 28/28d (n=27), ≤G2): 7 (26%)
- Fatigue, treatment related AE, n (%) ([2]; 30mg 28/28d (n=27), ≤G2): 15 (56%)
- Hyperglycemia, treatment related AE, n (%) ([2]; 30mg 28/28d (n=27), ≤G2): 0
- Liver dysfunction (abnormal LFTs), treatment related AE, n (%) ([2]; 30mg 28/28d (n=27), ≤G2): 1 (4%)
- Mucosal inflammation, treatment related AE, n (%) ([2]; 30mg 28/28d (n=27), ≤G2): 3 (11%)
- Nausea, treatment related AE, n (%) ([2]; 30mg 28/28d (n=27), ≤G2): 11 (41%)
- Patients with any AE related to apitolisib, n (%) ([2]; 30mg 28/28d (n=27), ≤G2): 12 (44%)
- Pneumonitis, treatment related AE, n (%) ([2]; 30mg 28/28d (n=27), ≤G2): 3 (11%)
- Pruritus, treatment related AE, n (%) ([2]; 30mg 28/28d (n=27), ≤G2): 2 (7%)
- Rash (maculopapular, pruritic, macular, erythematous, generalized), treatment related AE, n (%) ([2]; 30mg 28/28d (n=27), ≤G2): 12 (44%)
- Vomiting, treatment related AE, n (%) ([2]; 30mg 28/28d (n=27), ≤G2): 5 (19%)
- Decreased appetite, treatment related AE, n (%) ([2]; 30mg 28/28d (n=27), ≥G4): 0
- Diarrhea, treatment related AE, n (%) ([2]; 30mg 28/28d (n=27), ≥G4): 0
- Dry skin, treatment related AE, n (%) ([2]; 30mg 28/28d (n=27), ≥G4): 0
- Fatigue, treatment related AE, n (%) ([2]; 30mg 28/28d (n=27), ≥G4): 0
- Hyperglycemia, treatment related AE, n (%) ([2]; 30mg 28/28d (n=27), ≥G4): 1 (4%)
- Liver dysfunction (abnormal LFTs), treatment related AE, n (%) ([2]; 30mg 28/28d (n=27), ≥G4): 0
- Mucosal inflammation, treatment related AE, n (%) ([2]; 30mg 28/28d (n=27), ≥G4): 0
- Nausea, treatment related AE, n (%) ([2]; 30mg 28/28d (n=27), ≥G4): 0
- Patients with any AE related to apitolisib, n (%) ([2]; 30mg 28/28d (n=27), ≥G4): 1 (4%)
- Pneumonitis, treatment related AE, n (%) ([2]; 30mg 28/28d (n=27), ≥G4): 0
- Pruritus, treatment related AE, n (%) ([2]; 30mg 28/28d (n=27), ≥G4): 0
- Rash (maculopapular, pruritic, macular, erythematous, generalized), treatment related AE, n (%) ([2]; 30mg 28/28d (n=27), ≥G4): 0
- Vomiting, treatment related AE, n (%) ([2]; 30mg 28/28d (n=27), ≥G4): 0
- DLTs, Description ([2]; 40 mg 21/28 d, stage 1): G4 fasting hyperglycemia
- Decreased appetite, treatment related AE, n (%) ([2]; 40mg 28/28d (n=51), G3): 0
- Diarrhea, treatment related AE, n (%) ([2]; 40mg 28/28d (n=51), G3): 5 (10%)
- Dry skin, treatment related AE, n (%) ([2]; 40mg 28/28d (n=51), G3): 1 (2%)
- Fatigue, treatment related AE, n (%) ([2]; 40mg 28/28d (n=51), G3): 2 (4%)
- Hyperglycemia, treatment related AE, n (%) ([2]; 40mg 28/28d (n=51), G3): 9 (18%)
- Liver dysfunction (abnormal LFTs), treatment related AE, n (%) ([2]; 40mg 28/28d (n=51), G3): 6 (12%)
- Mucosal inflammation, treatment related AE, n (%) ([2]; 40mg 28/28d (n=51), G3): 3 (6%)
- Nausea, treatment related AE, n (%) ([2]; 40mg 28/28d (n=51), G3): 1 (2%)
- Patients with any AE related to apitolisib, n (%) ([2]; 40mg 28/28d (n=51), G3): 26 (51%)
- Pneumonitis, treatment related AE, n (%) ([2]; 40mg 28/28d (n=51), G3): 2 (4%)
- Pruritus, treatment related AE, n (%) ([2]; 40mg 28/28d (n=51), G3): 1 (2%)
- Rash (maculopapular, pruritic, macular, erythematous, generalized), treatment related AE, n (%) ([2]; 40mg 28/28d (n=51), G3): 7 (14%)
- Vomiting, treatment related AE, n (%) ([2]; 40mg 28/28d (n=51), G3): 1 (2%)
- Decreased appetite, treatment related AE, n (%) ([2]; 40mg 28/28d (n=51), ≤G2): 11 (22%)
- Diarrhea, treatment related AE, n (%) ([2]; 40mg 28/28d (n=51), ≤G2): 23 (45%)
- Dry skin, treatment related AE, n (%) ([2]; 40mg 28/28d (n=51), ≤G2): 7 (14%)
- Fatigue, treatment related AE, n (%) ([2]; 40mg 28/28d (n=51), ≤G2): 34 (67%)
- Hyperglycemia, treatment related AE, n (%) ([2]; 40mg 28/28d (n=51), ≤G2): 5 (10%)
- Liver dysfunction (abnormal LFTs), treatment related AE, n (%) ([2]; 40mg 28/28d (n=51), ≤G2): 2 (4%)
- Mucosal inflammation, treatment related AE, n (%) ([2]; 40mg 28/28d (n=51), ≤G2): 15 (29%)
- Nausea, treatment related AE, n (%) ([2]; 40mg 28/28d (n=51), ≤G2): 22 (43%)
- Patients with any AE related to apitolisib, n (%) ([2]; 40mg 28/28d (n=51), ≤G2): 20 (39%)
